In paper PMC10412585 (Nature Communications, 2023):

Experiments:
Type in all cases: cell-based, human
NKG2A+/NKG2C- NK cells = test: NK cell activation assay with peptide-pulsed K562/HLA-E cells, NKG2A+/NKG2C- NK cells; conditions: K562/HLA-E target cells, 300 µM peptide ([…] µM BFAR263-271), E:T 2:1, 6 h; degranulation (CD107a), IFN-γ, TNF, CCL3; flow cytometry
Method: (§1) We hypothesized that our predicted proteome-derived peptides could affect NK cell activation through interactions with CD94/NKG2A and CD94/NKG2C. To investigate, we performed cell-based activation assays on primary NK cells (Fig. 4A). NK cells were co-incubated with peptide-pulsed HLA-E-expressing K562 cells, as described previously. The parental K562 human myelogenous leukemia cell line is a typical target to measure NK cell cytotoxicity and activation, allowing for assessment of both NKG2A-mediated inhibition and NKG2C-mediated activation. […] NKG2A^-/NKG2C^- NK cells served as internal control as these should be unaffected by peptide-HLA-E complexes (Supplemental Fig. 12).
(§2) Fig. 4 NK cell stimulation assays. Assessment of effects of peptides on NK cell activity through incubation of NK cells, peptides, and (A) K562/HLA-E or (B) RMA-S/HLA-E target cells. […] Replicates for individual peptides are from different donors, with solid black lines indicating mean values. […] Representative gating for NKG2A^+/NKG2C^- and NKG2A^-/NKG2C^+ NK cells is shown in Supplemental Fig. 14. Source data are provided as a Source Data file.
(§3) All analyses of human data were carried out in compliance with the relevant ethical regulations. Healthy blood donors gave informed consent at DRK Blutspendedienst Nord-Ost, Dresden, Germany, and buffy coats were obtained as approved by Charité ethics committee (EA4/059/17). PBMCs were isolated from human CMV-seropositive buffy coats by density centrifugation over Ficoll Paque Plus (GE Healthcare) and screened for the presence of NKG2C^+ NK cell expansions by flow cytometry to have sufficient frequencies of single-positive cells for parallel assessment of activation and inhibition via HLA-E[47]. Total NK cells from donors with NKG2C^+ expansions (>10% NKG2A^-/NKG2C^+ NK cells) were enriched with CD56 microbeads (Miltenyi Biotec) and cryopreserved in FBS with 10% v/v DMSO. After thawing, NK cells were washed with complete medium, stained with antibodies and Fixable Viability Dye eFluor 780 (Thermo Fisher) for 15 min at 4 °C in PBS, sorted as viable CD56^+ CD3^− cells, and rested in complete media overnight. […] Brefeldin A and Monensin (BD Biosciences) were added after a 1 h culture period. After an additional 5 h, the stimulation was stopped by centrifugation at 4 °C. Cells underwent surface staining, followed by fixation and intracellular staining using Inside Stain Kit (Miltenyi Biotec). Samples were analyzed by flow cytometry on an LSR Fortessa (BD Biosciences). Inhibition of NKG2A^+ NK cells and activation of NKG2C^+ NK cells was assessed by gating on the respective single-positive populations (Supplemental Fig. 14). Antibodies are listed in Supplemental Table 1: anti-human CD56 PE/Dazzle 594 (1:200 dilution), CD3 APC-eFluor 780 (1:50 dilution), anti-human CD159a (NKG2A) Biotin REAfinity (1:50 dilution), anti-human CD159c (NKG2C) PE REAfinity (1:100 dilution), anti-human CD107a (LAMP-1) Alexa Fluor 488 (1:400 dilution), anti-human IFN-γ PE-Vio 770 REAfinity (1:50 dilution), anti-human TNF-α Brilliant Violet 605 (1:50 dilution), anti-human CCL3 (MIP-1α) REAfinity (1:25 dilution).

HLA-E = HLA-E surface stabilization assay with RMA-S/HLA-E cells; conditions: peptide 3-300 µM (Fig. 3: 30 µM) in OptiMEM, 16 h, 37 °C, anti-HLA-E 3D12, flow cytometry, n = 4 replicate experiments
Method: To probe top-predicted proteome-derived peptides (Tables 2 and 3) for HLA-E binding, we assessed their ability to stabilize surface-expressed HLA-E on RMA-S/HLA-E cells, a TAP-deficient mouse cell line engineered to express HLA-E and human β2M (Fig. 3 and Supplemental Fig. 8)[47].
Fig. 3 Peptide stabilization of HLA-E surface expression. Assessment of peptide-HLA-E binding via HLA-E surface stabilization assay with RMA-S/HLA-E cells incubated with 30 μM peptide. HLA-E expression is detected with an anti-HLA-E antibody. Measurements from n = 4 replicate experiments are shown, with solid black lines indicating mean values. […] Source data are provided as a Source Data file.
RMA-S/HLA-E cells were incubated with serial dilutions of peptides (3–300 µM, Genscript) in OptiMEM (ThermoFisher) for 16 h at 37 °C. Cells were washed with PBS, stained for HLA-E (Clone 3D12, Biolegend, 1:200 dilution) for 15 min at room temperature and analyzed by flow cytometry (analysis in FlowJo version 10). Peptide UBAC2_275-279 was ordered as a 5mer peptide (WNRLF) given the similarity with other WN peptides and hypothesis of a truncated peptide binding in the HLA-E groove. […] Measurements from replicate experiments are plotted in Fig. 3 and Supplemental Fig. 8.

NKG2A-/NKG2C+ NK cells = test: NK cell activation assay with peptide-pulsed K562/HLA-E cells, NKG2A-/NKG2C+ NK cells; conditions: K562/HLA-E target cells, 300 µM peptide ([…] µM BFAR263-271), E:T 2:1, 6 h; degranulation (CD107a), IFN-γ, TNF, CCL3; flow cytometry
Method: as §1, §2, §3

NKG2A-/NKG2C- NK cells = test: NK cell activation assay with peptide-pulsed K562/HLA-E cells, NKG2A-/NKG2C- internal control; conditions: K562/HLA-E target cells, 300 µM peptide, flow cytometry
Method: We hypothesized that our predicted proteome-derived peptides could affect NK cell activation through interactions with CD94/NKG2A and CD94/NKG2C. To investigate, we performed cell-based activation assays on primary NK cells (Fig. 4A). NK cells were co-incubated with peptide-pulsed HLA-E-expressing K562 cells, as described previously. The parental K562 human myelogenous leukemia cell line is a typical target to measure NK cell cytotoxicity and activation, allowing for assessment of both NKG2A-mediated inhibition and NKG2C-mediated activation. A side-by-side comparison of the HLA-E expression levels of K562/HLA-E and RMA-S/HLA-E cell lines is shown in Supplemental Fig. 11. All peptides which bound and stabilized HLA-E in the cell-based stability experiment (Fig. 3) were analyzed for their effects on NKG2A^+/NKG2C^- or NKG2A^-/NKG2C^+ NK cell activity, as measured by their ability to induce NK cell degranulation as well as IFN-γ, TNF and CCL3 production, in comparison to class I MHC-derived positive control peptides […] and […], and negative control peptide […] […]
All analyses of human data were carried out in compliance with the relevant ethical regulations. […] Samples were analyzed by flow cytometry on an LSR Fortessa (BD Biosciences). Inhibition of NKG2A^+ NK cells and activation of NKG2C^+ NK cells was assessed by gating on the respective single-positive populations (Supplemental Fig. 14). […]

## SAPLKTRFL [UL120_71-79, AD169, divergent UL120 peptide of CMV strain AD169]
NKG2A+/NKG2C- NK cells
  inhibitory effects on NKG2A+ cells: negatively affect activation of all subsets
HLA-E
  stabilization of HLA-E surface expression: weaker but detectable stabilization
NKG2A-/NKG2C+ NK cells
  activating effects on NKG2C+ cells: negatively affect activation of all subsets
NKG2A-/NKG2C- NK cells
  effect on activation of internal NKG2A-/NKG2C- control NK cells: negatively affect activation of all subsets
